# Laboratory results from US6440459B1, “Paroxetine maleate polymorph and pharmaceutical compositions containing it” (Medichem, S.A., priority 1998, dated 2002).
# Test: Accelerated stability tests (storage at 40° C. and 75% Relative Humidity, HPLC analysis)
# Type: physicochemical
# Details: for Degradation in accelerated stability tests: high temperature and humidity conditions, periods of up to six months (summary statement); for Stability (degradation by HPLC) at the end of one month of storage / Stability (degradation by HPLC) at the end of six months of storage: solid in two-ply polythene bags, 40° C., 75% Relative Humidity, HPLC vs time of packaging
# Experimental: Accelerated Stability Tests Samples of paroxetine maleate Form A and Form B were packaged in two-ply polythene bags and stored at 40° C. and 75% Relative Humidity. The samples were analyzed at the time of packaging by HPLC and were analyzed with the same technique at the end of one month and six months of storage.
Degradation in accelerated stability tests,Stability (degradation by HPLC) at the end of one month of storage,Stability (degradation by HPLC) at the end of six months of storage,SMILES
absence of significant degradation,substantially unaltered,substantially unaltered,"Fc1ccc([C@@H]2CCNC[C@H]2COc2ccc3c(c2)OCO3)cc1.O=C(O)/C=C\C(=O)O [Form B, (3S-trans)-3-[(1,3-benzodioxol-5-yloxy)methyl]-4-(4-fluorophenyl)piperidine acid maleate]"
notable degradation,clear signs of degradation,high degree of degradation,"Fc1ccc([C@@H]2CCNC[C@H]2COc2ccc3c(c2)OCO3)cc1.O=C(O)/C=C\C(=O)O [Form A, (3S-trans)-3-[(1,3-benzodioxol-5-yloxy)methyl]-4-(4-fluorophenyl)piperidine acid maleate]"
